Data on 17 molecules can be found in US20250171457A1, “NITROGEN-CONTAINING HETEROCYCLIC COMPOUND HAVING NRF2 ACTIVATION EFFECT” (CHUGAI SEIYAKU KABUSHIKI KAISHA, priority 2022, published 2025).

In one experiment the test system is Nrf2 transcriptional activity (pARE-Luc reporter) in HepG2 cells. In words: In vitro Nrf2 transcriptional activity measurement by ARE-dependent reporter assay in HepG2 cell. It is filed as cell-based, human. Conditions: HepG2 cells, pARE-Luc reporter, 4 hours; 100% = Example 1-54 or Example 17-23 at 3.75 μM (repeat print of Table 20-1). Summed up:
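Luminescence readout (Bright-Glo) after 4 h, 37° C compound exposure of HepG2 cells carrying the ARE-luciferase vector pGL4.37. Each well converted to % response versus reference compound at 3.75 μM, and EC50 derived from dose-response curves.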
For orientation: A reporter such as luciferase makes a cellular process visible.
As to `Cc1nc(N2CC3(C2)OCC(C)(C)CO3)cc(Cl)c1C(=O)N1COc2c(cccc2-c2cc(N3C4CCC3COC4)c(C(=O)O)cc2F)C1` [Compound 19-9, 4-[3-[4-Chloro-6-(7,7-dimethyl-5,9-dioxa-2-azaspiro[3.5]nonan-2-yl)-2-methylpyridine-3-carbonyl]-2,4-dihydro-1,3-benzoxazin-8-yl]-5-fluoro-2-(3-oxa-8-azabicyclo[3.2.1]octan-8-yl)benzoic acid], a half-maximal response (EC50) required 1.4 nM.

The experiment is the same for the next values; noted with them: Homo sapiens; HepG2 cells transfected with pARE-Luc, 4 hours at 37° C.; luciferase activity of Example 1-54 or Example 17-23 at 3.75 μM defined as 100%.
Consider `CN1CCN(c2cc(Cl)c(C(=O)N3COc4c(cccc4-c4cc(N5CCCC5)c(C(=O)O)cc4F)C3)c(Cl)c2)CC1` [Compound 18-6, 4-[3-[2,6-Dichloro-4-(4-methylpiperazin-1-yl)benzoyl]-2,4-dihydro-1,3-benzoxazin-8-yl]-5-fluoro-2-pyrrolidin-1-ylbenzoic acid], for which the EC50 – broadly, the concentration giving half of the maximal effect – was 10 nM.
Molecule `COc1cc2c(c(-c3cc(N4C5CCC4COC5)c(C(=O)O)cc3F)c1)OCN(C(=O)c1c(Cl)cc(N3CC(OC)C3)cc1Cl)C2` [Compound 18-7, 4-[3-[2,6-Dichloro-4-(3-methoxyazetidin-1-yl)benzoyl]-6-methoxy-2,4-dihydro-1,3-benzoxazin-8-yl]-5-fluoro-2-(3-oxa-8-azabicyclo[3.2.1]octan-8-yl)benzoic acid] yielded an EC50 of 17 nM.
`Cn1cc(-c2cc(Cl)c(C(=O)N3CNc4c(cccc4-c4cc(N5CCOCC5)c(C(=O)O)cc4F)C3)c(Cl)c2)cn1` [Compound 18-8, 4-[3-[2,6-Dichloro-4-(1-methylpyrazol-4-yl)benzoyl]-2,4-dihydro-1H-quinazolin-8-yl]-5-fluoro-2-morpholin-4-ylbenzoic acid]: the EC50 worked out at 2.8 nM.
For the molecule `Cn1cc(-c2cc(Cl)c(C(=O)N3Cc4cccc(-c5cc(N6CCOCC6)c(C(=O)O)cc5F)c4NC3=O)c(Cl)c2)cn1` [Compound 18-9, 4-[3-[2,6-Dichloro-4-(1-methylpyrazol-4-yl)benzoyl]-2-oxo-1,4-dihydroquinazolin-8-yl]-5-fluoro-2-morpholin-4-ylbenzoic acid], the EC50 was 23 nM.
`O=C(O)c1ccc(-c2cccc3c2OCN(C(=O)c2c(Cl)cc(N4CCC(N5CCOCC5)CC4)cc2Cl)C3)nc1N1CCCCC1` [Compound 18-10, 6-[3-[2,6-Dichloro-4-(4-morpholin-4-ylpiperidin-1-yl)benzoyl]-2,4-dihydro-1,3-benzoxazin-8-yl]-2-piperidin-1-ylpyridine-3-carboxylic acid] returned an EC50 of 36 nM.
On to `Cn1cc(-c2cc(Cl)c(C(=O)N3CCc4c(cccc4-c4ccc(C(=O)O)c(N5CCCCC5)n4)C3)c(Cl)c2)cn1` [Compound 18-11, 6-[2-[2,6-Dichloro-4-(1-methylpyrazol-4-yl)benzoyl]-3,4-dihydro-1H-isoquinolin-5-yl]-2-piperidin-1-ylpyridine-3-carboxylic acid], for which the EC50 was determined as 310 nM.
On to `Cn1cc(-c2cc(Cl)c(C(=O)N3COc4c(ccnc4-c4ccc(C(=O)O)c(N5CCOCC5)c4)C3)c(Cl)c2)cn1` [Compound 18-12, 4-[3-[2,6-Dichloro-4-(1-methylpyrazol-4-yl)benzoyl]-2,4-dihydropyrido[4,3-e][1,3]oxazin-8-yl]-2-morpholin-4-ylbenzoic acid], for which the EC50 amounted to 24 nM.
In turn, `Cc1cc(N2CC3(C2)OCC(C)(C)CO3)cc(C)c1C(=O)N1COc2c(cccc2-c2cc(N3C4CCC3COC4)c(C(=O)O)cc2F)C1` [Compound 19-2, 4-[3-[4-(7,7-Dimethyl-5,9-dioxa-2-azaspiro[3.5]nonan-2-yl)-2,6-dimethylbenzoyl]-2,4-dihydro-1,3-benzoxazin-8-yl]-5-fluoro-2-(3-oxa-8-azabicyclo[3.2.1]octan-8-yl)benzoic acid] displayed an EC50 of 1.6 nM.
`C[C@@H]1CN(c2cc(F)c(C(=O)N3COc4c(cccc4-c4cc(N5C6CCC5COC6)c(C(=O)O)cc4F)C3)c(Cl)c2)[C@H](C)CN1C` [Compound 19-3, 4-[3-[2-Chloro-6-fluoro-4-[(2R,5R)-2,4,5-trimethylpiperazin-1-yl]benzoyl]-2,4-dihydro-1,3-benzoxazin-8-yl]-5-fluoro-2-(3-oxa-8-azabicyclo[3.2.1]octan-8-yl)benzoic acid] registered an EC50 of 1.2 nM.
Same read-out and setting: under `Cc1cc(N2C[C@@H](C)N(C)C[C@H]2C)cc(Cl)c1C(=O)N1COc2c(cccc2-c2cc(N3C4CCC3COC4)c(C(=O)O)cc2F)C1` [Compound 19-4, 4-[3-[2-Chloro-6-methyl-4-[(2R,5R)-2,4,5-trimethylpiperazin-1-yl]benzoyl]-2,4-dihydro-1,3-benzoxazin-8-yl]-5-fluoro-2-(3-oxa-8-azabicyclo[3.2.1]octan-8-yl)benzoic acid] stands 1.9 nM; under `CC1(C)COC2(CN(c3cc(Cl)c(C(=O)N4COc5c(cccc5-c5cc(N6C7CCC6COC7)c(C(=O)O)cc5F)C4)c(C#N)c3)C2)OC1` [Compound 19-5, 4-[3-[2-Chloro-6-cyano-4-(7,7-dimethyl-5,9-dioxa-2-azaspiro[3.5]nonan-2-yl)benzoyl]-2,4-dihydro-1,3-benzoxazin-8-yl]-5-fluoro-2-(3-oxa-8-azabicyclo[3.2.1]octan-8-yl)benzoic acid], 2.7 nM; under `C[C@@H]1CN(c2cnc(C(=O)N3COc4c(cccc4-c4cc(N5C6CCC5COC6)c(C(=O)O)cc4F)C3)c(Cl)c2)[C@H](C)CN1C` [Compound 19-6, 4-[3-[3-Chloro-5-[(2R,5R)-2,4,5-trimethylpiperazin-1-yl]pyridine-2-carbonyl]-2,4-dihydro-1,3-benzoxazin-8-yl]-5-fluoro-2-(3-oxa-8-azabicyclo[3.2.1]octan-8-yl)benzoic acid], 6.3 nM.
The molecule `C[C@@H]1CN(C)CCN1c1cc(F)c(C(=O)N2COc3c(cccc3-c3cc(N4C5CCC4COC5)c(C(=O)O)cc3F)C2)c(Cl)c1` [Compound 19-7, 4-[3-[2-Chloro-4-[(2R)-2,4-dimethylpiperazin-1-yl]-6-fluorobenzoyl]-2,4-dihydro-1,3-benzoxazin-8-yl]-5-fluoro-2-(3-oxa-8-azabicyclo[3.2.1]octan-8-yl)benzoic acid] gave an EC50 of 2.3 nM.
Molecule `C[C@@H]1CN(C)CCN1c1ccc(C(=O)N2COc3c(cccc3-c3cc(N4C5CCC4COC5)c(C(=O)O)cc3F)C2)c(Cl)c1` [Compound 19-8, 4-[3-[2-Chloro-4-[(2R)-2,4-dimethylpiperazin-1-yl]benzoyl]-2,4-dihydro-1,3-benzoxazin-8-yl]-5-fluoro-2-(3-oxa-8-azabicyclo[3.2.1]octan-8-yl)benzoic acid] returned an EC50 of 3.9 nM.
`CC1(C)COC2(CN(c3cc(F)c(C(=O)N4COc5c(cccc5-c5cc(N6C7CCC6COC7)c(C(=O)O)cc5F)C4)c(Cl)c3)C2)OC1` [Compound 19-10, 4-[3-[2-Chloro-4-(7,7-dimethyl-5,9-dioxa-2-azaspiro[3.5]nonan-2-yl)-6-fluorobenzoyl]-2,4-dihydro-1,3-benzoxazin-8-yl]-5-fluoro-2-(3-oxa-8-azabicyclo[3.2.1]octan-8-yl)benzoic acid]: the EC50 worked out at 2.5 nM.
Consider `CC1(C)COC2(CN(c3ccc(C(=O)N4COc5c(cccc5-c5cc(N6C7CCC6COC7)c(C(=O)O)cc5F)C4)c(Cl)c3)C2)OC1` [Compound 19-11, 4-[3-[2-Chloro-4-(7,7-dimethyl-5,9-dioxa-2-azaspiro[3.5]nonan-2-yl)benzoyl]-2,4-dihydro-1,3-benzoxazin-8-yl]-5-fluoro-2-(3-oxa-8-azabicyclo[3.2.1]octan-8-yl)benzoic acid], for which it took 4.3 nM to reach a half-maximal effect (EC50).
